Assays:
Test in all cases: relative viability (nuclei count vs DMSO), 5 days (fraction); higher = more cells survive
AZD5582 + Trametinib = compound: C[C@@H](C(=O)N[C@@H](C1CCCCC1)C(=O)N2CCC[C@H]2C(=O)N[C@@H]3[C@@H](CC4=CC=CC=C34)OCC#CC#CCO[C@@H]5CC6=CC=CC=C6[C@@H]5NC(=O)[C@@H]7CCCN7C(=O)[C@H](C8CCCCC8)NC(=O)[C@H](C)NC)NC [AZD5582] + CC(=O)Nc1cccc(-n2c(=O)n(C3CC3)c(=O)c3c(Nc4ccc(I)cc4F)n(C)c(=O)c(C)c32)c1 [Trametinib] (partner 0.02 µM)
Method in brief: (§1)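 The day after seeding in 1536-well plates, lung cancer cell lines were treated by pin tool with a single drug, or with a fixed anchor-drug dose together with five library-drug doses (not always all listed) in √10 steps. After 5 days, a combined fix-and-stain solution (final 0.05% Triton X-100, 1% formaldehyde, 1 ug/ml Hoechst) was added. Nuclei counted on 4× images gave relative viability as treated counts over vehicle counts, reported as the median of duplicate plates.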

AZD5582 + Phenformin = compound: C[C@@H](C(=O)N[C@@H](C1CCCCC1)C(=O)N2CCC[C@H]2C(=O)N[C@@H]3[C@@H](CC4=CC=CC=C34)OCC#CC#CCO[C@@H]5CC6=CC=CC=C6[C@@H]5NC(=O)[C@@H]7CCCN7C(=O)[C@H](C8CCCCC8)NC(=O)[C@H](C)NC)NC [AZD5582] + N=C(N)NC(=N)NCCc1ccccc1 [Phenformin] (partner 250 µM)
Method in brief: as §1

AZD5582 + Decitabine = compound: C[C@@H](C(=O)N[C@@H](C1CCCCC1)C(=O)N2CCC[C@H]2C(=O)N[C@@H]3[C@@H](CC4=CC=CC=C34)OCC#CC#CCO[C@@H]5CC6=CC=CC=C6[C@@H]5NC(=O)[C@@H]7CCCN7C(=O)[C@H](C8CCCCC8)NC(=O)[C@H](C)NC)NC [AZD5582] + Nc1ncn([C@H]2C[C@H](O)[C@@H](CO)O2)c(=O)n1 [Decitabine] (partner 2 µM)
Method in brief: as §1

[1] = compound: Cn1nnc2c(C(N)=O)ncn2c1=O [Temozolomide] + CC1(C)CCC(c2ccc(Cl)cc2)=C(CN2CCN(c3ccc(C(=O)NS(=O)(=O)c4ccc(N[C@H](CCN5CCOCC5)CSc5ccccc5)c(S(=O)(=O)C(F)(F)F)c4)cc3)CC2)C1 [Navitoclax] (partner 0.5 µM)
Method in brief: as §1

Cell Line | relative viability (AZD5582 + Trametinib; first compound 0.001581 µM) | relative viability (AZD5582 + Trametinib; first compound 0.005 µM) | relative viability (AZD5582 + Trametinib; first compound 0.01581 µM) | relative viability (AZD5582 + Trametinib; first compound 0.05 µM) | relative viability (AZD5582 + Phenformin; first compound 0.001581 µM) | relative viability (AZD5582 + Phenformin; first compound 0.005 µM) | relative viability (AZD5582 + Phenformin; first compound 0.01581 µM) | relative viability (AZD5582 + Phenformin; first compound 0.05 µM) | relative viability (AZD5582 + Decitabine; first compound 0.001581 µM) | relative viability (AZD5582 + Decitabine; first compound 0.005 µM) | relative viability (AZD5582 + Decitabine; first compound 0.01581 µM) | relative viability (AZD5582 + Decitabine; first compound 0.05 µM) | relative viability ([1]; first compound 0.2 µM) | relative viability ([1]; first compound 0.6325 µM) | relative viability ([1]; first compound 2 µM) | relative viability ([1]; first compound 6.325 µM) | relative viability ([1]; first compound 20 µM)
NCI-H1666 | 0.959 | 0.864 | 0.846 | 0.852 | 0.532 | 0.544 | 0.557 | 0.609 | 0.658 | 0.73 | 0.626 | 0.704 | 0.831 | 0.933 | 0.764 | 0.768 | 0.454
ChaGo-K-1 | 0.897 | 0.883 | 0.886 | 0.936 | 0.445 | 0.54 | 0.4 | 0.513 | 0.545 | 0.579 | 0.509 | 0.597 | 1.11 | 1.16 | 1.45 | 0.968 | 0.964
LOU-NH91 | 0.772 | 0.767 | 0.781 | 0.808 | 0.716 | 0.698 | 0.592 | 0.741 | 0.803 | 0.835 | 0.824 | 0.794 | 0.395 | 0.738 | 0.702 | 0.596 | 0.361
NCI-H1975 | 0.444 | 0.434 | 0.448 | 0.322 | 0.416 | 0.457 | 0.393 | 0.452 | 0.35 | 0.408 | 0.412 | 0.276 | 1.2 | 1.11 | 1.2 | 1.07 | 1.13
LC-2-ad | 0.92 | 1.04 | 0.942 | 1.04 | 0.607 | 0.64 | 0.338 | 0.585 | 0.822 | 0.847 | 0.765 | 0.764 | 0.598 | 0.437 | 0.358 | 0.374 | 0.336
NCI-H2405 | 0.705 | 0.739 | 0.545 | 0.709 | 0.375 | 0.469 | 0.327 | 0.473 | 0.772 | 0.861 | 0.687 | 0.721 | 0.34 | 0.775 | 0.995 | 0.73 | 0.82
NCI-H1355 | 0.396 | 0.444 | 0.452 | 0.409 | 0.416 | 0.426 | 0.381 | 0.387 | 0.359 | 0.317 | 0.357 | 0.364 | 0.837 | 0.927 | 0.964 | 0.927 | 0.913
NCI-H2085 | 0.433 | 0.643 | 0.394 | 0.61 | 0.562 | 0.623 | 0.561 | 0.542 | 0.527 | 0.644 | 0.608 | 0.545 | 1.2 | 1.24 | 1.24 | 1.18 | 1.06
HOP-62 | 0.407 | 0.456 | 0.418 | 0.446 | 0.515 | 0.676 | 0.666 | 0.711 | 0.213 | 0.209 | 0.247 | 0.213 | 1.05 | 1 | 1.13 | 0.941 | 1.14
NCI-H2126 | 0.581 | 0.594 | 0.594 | 0.614 | 0.489 | 0.567 | 0.497 | 0.512 | 0.53 | 0.577 | 0.581 | 0.59 | 0.853 | 0.829 | 0.83 | 0.886 | 0.844
LXF-289 | 0.641 | 0.647 | 0.654 | 0.726 | 0.484 | 0.488 | 0.409 | 0.486 | 0.372 | 0.331 | 0.391 | 0.308 | 0.98 | 0.91 | 0.946 | 0.937 | 0.847
HCC-366 | 0.304 | 0.339 | 0.413 | 0.458 | 0.575 | 0.564 |  | 0.708 | 0.346 | 0.37 | 0.386 | 0.395 | 1.07 | 1.18 | 1.14 | 1.17 | 0.918
RERF-LC-KJ | 0.764 | 0.818 | 0.898 | 0.781 |  |  | 0.35 | 0.197 |  |  | 0.779 | 0.208 | 1.04 | 0.884 | 0.928 | 0.951 | 1.06
NCI-H1395 | 0.961 | 1.22 |  | 1.28 | 0.5 | 0.476 | 0.412 | 0.45 | 0.694 | 0.743 |  | 0.782 | 1.26 | 1.14 | 1.14 | 1.1 | 1.05
COR-L23 | 0.485 | 0.75 | 0.584 | 0.523 | 0.42 | 0.418 | 0.385 | 0.521 | 0.476 | 0.441 | 0.445 | 0.481 | 1.2 | 0.933 | 1.02 | 0.976 | 0.938
NCI-H1650 | 0.447 | 0.596 | 0.514 | 0.621 | 0.461 | 0.492 | 0.342 | 0.394 | 0.389 | 0.366 | 0.51 | 0.279 | 1.39 | 1.33 | 1.08 | 1.28 | 0.974
HCC-44 | 0.883 | 0.967 | 1.02 | 0.878 | 0.169 | 0.149 | 0.105 | 0.145 | 0.828 | 0.786 | 0.845 | 0.681 | 0.972 | 1.02 | 0.913 | 0.966 | 0.983
PC-3 [JPC-3] | 0.668 | 0.627 | 0.696 | 0.486 | 0.465 | 0.441 | 0.47 | 0.381 | 0.737 | 0.641 | 0.855 | 0.431 | 0.725 | 0.847 | 0.784 | 0.82 | 0.364

Source: the supplement of paper PMC10307832
